The term EC50 denotes the concentration giving half of the maximal effect.

The record followed here is patent US11124510B2, “Alkyl chain modified imidazoquinoline TLR7/8 agonist compounds and uses thereof” (Dynavax Technologies Corporation, priority 2017, dated 2021).

Assay [1] deals with CT26 colon carcinoma. Nature of the assay: Anti-tumor efficacy, repeated intratumoral dosing in CT26 colon carcinoma-bearing wild-type mice. It is filed as in vivo. As to conditions: 0.5-20 μg in 95% sesame oil/5% ethanol. Here is the method: The effect of repeated weekly doses of intratumorally delivered pharmaceutical compositions comprised of Compound No. 63-10, 63-18, or 63-33 formulated in 95% sesame oil/5% ethanol (v/v) on tumor growth inhibition was assessed in syngeneic CT26 colon carcinoma-bearing Balb/c mice. All in vivo procedures were conducted in accordance with approved Institutional Animal Care and Use Committee (IACUC) protocols. The animals were housed in a facility that is accredited by the Association for Accreditation and Laboratory Animal Care (AALAC, Frederick, Md.). Wild-type female Balb/c mice (15-20 gm) were obtained from Envigo (Hayward, Calif.) and acclimated for 2-3 days prior to use.
The pharmaceutical compositions were made with the three compounds at final concentrations of 5, 50, and 200 μg/mL in a manner similar to that described in Example B2-1. […] On day 0, mice were anesthetized with 1% isoflurane and 80,000 CT26 tumor cells in 200 uL of RMPI-1640 culture media plus 2.5% fetal bovine serum were injected subcutaneously in the right flank. Tumors were allowed to grow until they were ˜35 mm^3, at which point animals were assigned to groups to begin treatment. Mice were injected weekly for 4 weeks intratumorally with 100 uL of a pharmaceutical composition comprising 20, 5, or 0.5 μgs of Compound No. 63-10, or 20 or 5 μgs of Compound Nos. 63-18, or 63-33 formulated in 95% sesame oil/5% ethanol (v/v), or a vehicle control, twice weekly for 3 weeks (experimental days 9, 12, 16, 19, 23, and 26). The TLR9 CpG agonist was injected intratumorally with 100 μL of a pharmaceutical composition comprised of 50 μgs of compound formulated in phosphate buffered saline on the same dosing schedule. Tumor sizes were measured twice weekly from days 8 through day 30 with calipers, with tumor volumes calculated using the formula: length, multiplied by width, multiplied by width, divided by 2.

The next assay addresses TLR7 (Homo sapiens (Human), UniProt Q9NYK1). As to the kind of experiment: TLR7 agonist bioactivity: induction of IFNα protein in pDC-enriched PBMC cultures (ELISA, 24 h). It is filed as cell-based. As to conditions: for TLR7 (% of Compound No. 63-00 EC50 Value): EC50 expressed as percentage of EC50 of Compound No. 63-00; for EC50: IFNα induction, pDC-enriched human PBMC, 24 hours; for fold loss of TLR7 agonist potency compared to Compound No. 63-00 (IMDQ): less potent than IMDQ. The method, then: Plasmacytoid dendritic cell (pDC)—enriched peripheral blood mononuclear cells (PBMCs) were prepared from the blood of a series of human donors (3-5 donors/experiment). PBMCs were isolated using Ficoll-Paque Premium® (GE Healthcare, Chicago Ill.) using methods well known to those in the art. pDCs were magnetically isolated from the total recovered PBMC population using CD304 (BDCA-4/Neuropilin-1) microbeads (Miltenyi Biotec, San Diego Calif.), according to the manufacturer's instructions. Isolated pDCs were then added back to between 1 and 2×10^8 of the corresponding donor's PBMCs for relative enrichment of this cell type. […] Culture supernatants were collected and interferon-alpha (IFNα) protein levels were measured by ELISA (MabTech, Cincinnati Ohio), according to the manufacturer's instructions.
Background: ELISA stands for enzyme-linked immunosorbent assay.

Another assay has as its target TLR8 (Homo sapiens (Human), UniProt Q9NR97). Nature of the assay: TLR8 agonist bioactivity: induction of TNFα protein in monocyte cultures (ELISA, 24 h). It is filed as cell-based. As to conditions: for TLR8 (% of Compound No. 63-00 EC50 Value): EC50 expressed as percentage of EC50 of Compound No. 63-00; for EC50: TNFα induction, human monocytes, 24 hours; for fold increase of TLR8 agonist potency compared to Compound No. 63-00 (IMDQ): more potent than IMDQ; for fold loss of TLR8 agonist potency compared to Compound No. 63-00 (IMDQ): less potent than IMDQ. The method, then: Monocytes were magnetically isolated from PBMCs, prepared as described above, following labeling with CD14 microbeads (Miltenyi Biotec, San Diego Calif.), according to the manufacturer's instructions. […] Culture supernatants were collected and tumor necrosis factor alpha (TNFα) protein levels were measured by ELISA (MabTech, Cincinnati Ohio), according to the manufacturer's instructions.

Assay [2] concerns CT26 colon carcinoma. As to the kind of experiment: Anti-tumor efficacy in combination with anti-PD-1 antibody in dual flank CT26 colon carcinoma-bearing mice. It is filed as in vivo. As to conditions: for tumor growth inhibition in the injected tumor (right flank) compared to the anti-PD-1 treatment alone / tumor growth inhibition in the distal tumor (left flank) compared to the anti-PD-1 treatment alone: 5,000 ng single intratumoral dose day 14, in combination with anti-PD-1; for tumor growth inhibition in the distal tumor (left flank) compared to the anti-PD-1 treatment alone: day 29; for injected tumor growth inhibition, difference from the anti-PD-1 treatment control at day 29: 5,000 ng single intratumoral dose, in combination with anti-PD-1, Kruskall-Wallis/Dunn. Here is the method:
All in vivo procedures were conducted in accordance with approved IACUC protocols. The animals were housed in a facility that is accredited by the AALAC. Wild-type female Balb/c mice (15-20 g) were obtained from Envigo (Hayward, Calif.) and acclimated for 2-3 days prior to use.
The pharmaceutical compositions were made using Compound No. 63-10 or 63-33 at final concentrations of 50,000 ng/mL in a manner similar to that described for Example B2-1. […] On day 0, mice were anesthetized with 1% isoflurane, and 80,000 CT26 tumor cells in 200 uL of RMPI-1640 culture media plus 2.5% fetal bovine serum were injected subcutaneously in both the right and left flanks. Tumors (left and right) were allowed to grow until day 8, when the right and left flank tumor sizes had reached approximately 35 mm^3, at which point mice were injected intraperitoneally with 250 μg of anti-PD-1 antibody formulated in phosphate buffered saline or a phosphate buffered saline vehicle control. The anti-PD-1 treatments were repeated on experimental days 12, 15, 19, 22, and 26. On experimental day 14, when the right (injected) and left (distal) flank tumors had reached approximately 100 mm^3, mice were randomized into treatment groups. […] Tumor sizes were measured twice weekly from days 14 through day 29 with calipers, with tumor volumes calculated using the formula: length, multiplied by width, multiplied by width, divided by 2.

The subject of another assay is serum IL-6 and IL-12p40. Nature of the assay: In vivo systemic immune activation assay: serum IL-6 and IL-12p40 by ELISA after single subcutaneous injection. Also on record: species or system mice. As to conditions: 5 μg subcutaneously in footpad, 95% sesame oil/5% ethanol, ± SEM. Here is the method:
Small molecule TLR7 and TLR7/8 agonists derived from the 1H-imidazo[4,5-c]quinoline privileged template (see e.g., Imiquimod, Resiquimod) are known to rapidly distribute to the systemic compartment following intratumoral, subcutaneous, or intramuscular injection. Broad systemic distribution of these agonist compounds in wild-type mice induces TLR7-dependent cytokine responses, primarily in spleen and liver cells, which can subsequently be detected in the serum within 3-6 hours. The rapid increase in serum cytokine biomarkers (e.g., IL-6 and IL-12p40) can be used to assess the kinetics of systemic distribution of a locally administered TLR agonist.
The kinetics of distribution of pharmaceutical compositions comprised of Compound Nos. 63-00, 63-17, or 63-10 formulated in 95% sesame oil/5% ethanol (v/v) were assessed following a single subcutaneous injection in wild-type mice. All in vivo procedures were conducted in accordance with approved Institutional Animal Care and Use Committee (IACUC) protocols. The animals were housed in a facility that is accredited by the Association for Accreditation and Laboratory Animal Care (AALAC, Frederick Md.). Wild-type female BALB/c mice (15-20 gm) were obtained from Envigo (Hayward, Calif.) and acclimated for 2-3 days prior to use.
The pharmaceutical compositions were made with the three compounds, at a final concentration of 200 μg/mL, in a manner similar to that described in Example B2-1. At T=0, groups of 3 mice were anesthetized with 1% isoflurane and injected subcutaneously in the right footpad with 5 μg of each of the three compounds, or a vehicle control, in 25 uL of 95% sesame oil/5% ethanol (v/v). Then, at T=3, 6, and 24 hours, three animals from each group were anesthetized with 1% isoflurane to facilitate blood collection by cardiac puncture. Samples were processed to serum, and stored at −20° C. for further analysis.

Sequence of TLR8 (Q9NR97 27-1041): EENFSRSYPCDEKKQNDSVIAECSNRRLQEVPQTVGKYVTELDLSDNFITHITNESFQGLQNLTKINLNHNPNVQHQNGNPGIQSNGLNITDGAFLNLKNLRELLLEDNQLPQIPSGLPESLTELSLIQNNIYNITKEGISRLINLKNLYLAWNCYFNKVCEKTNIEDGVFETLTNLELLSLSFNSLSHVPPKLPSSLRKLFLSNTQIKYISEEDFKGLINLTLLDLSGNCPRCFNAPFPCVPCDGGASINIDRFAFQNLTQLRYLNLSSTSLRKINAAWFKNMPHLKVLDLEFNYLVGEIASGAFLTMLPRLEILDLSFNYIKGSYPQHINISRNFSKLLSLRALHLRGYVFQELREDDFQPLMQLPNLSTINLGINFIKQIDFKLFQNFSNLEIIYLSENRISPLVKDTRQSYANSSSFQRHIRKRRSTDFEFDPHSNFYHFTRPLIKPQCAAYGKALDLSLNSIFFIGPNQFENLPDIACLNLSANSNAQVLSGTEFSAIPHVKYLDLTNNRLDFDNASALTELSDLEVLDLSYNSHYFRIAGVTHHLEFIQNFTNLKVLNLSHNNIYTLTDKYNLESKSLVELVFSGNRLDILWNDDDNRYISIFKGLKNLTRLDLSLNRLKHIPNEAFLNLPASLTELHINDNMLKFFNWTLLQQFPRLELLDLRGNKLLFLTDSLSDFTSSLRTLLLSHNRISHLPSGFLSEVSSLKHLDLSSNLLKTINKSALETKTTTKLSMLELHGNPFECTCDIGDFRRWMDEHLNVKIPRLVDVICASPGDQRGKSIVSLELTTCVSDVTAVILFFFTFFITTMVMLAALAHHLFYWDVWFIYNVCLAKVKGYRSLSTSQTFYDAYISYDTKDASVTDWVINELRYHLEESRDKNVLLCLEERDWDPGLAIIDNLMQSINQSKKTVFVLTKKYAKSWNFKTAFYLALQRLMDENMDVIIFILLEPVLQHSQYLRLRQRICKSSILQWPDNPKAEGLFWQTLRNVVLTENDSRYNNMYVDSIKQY
Sequence of TLR7 (Q9NYK1 27-1049): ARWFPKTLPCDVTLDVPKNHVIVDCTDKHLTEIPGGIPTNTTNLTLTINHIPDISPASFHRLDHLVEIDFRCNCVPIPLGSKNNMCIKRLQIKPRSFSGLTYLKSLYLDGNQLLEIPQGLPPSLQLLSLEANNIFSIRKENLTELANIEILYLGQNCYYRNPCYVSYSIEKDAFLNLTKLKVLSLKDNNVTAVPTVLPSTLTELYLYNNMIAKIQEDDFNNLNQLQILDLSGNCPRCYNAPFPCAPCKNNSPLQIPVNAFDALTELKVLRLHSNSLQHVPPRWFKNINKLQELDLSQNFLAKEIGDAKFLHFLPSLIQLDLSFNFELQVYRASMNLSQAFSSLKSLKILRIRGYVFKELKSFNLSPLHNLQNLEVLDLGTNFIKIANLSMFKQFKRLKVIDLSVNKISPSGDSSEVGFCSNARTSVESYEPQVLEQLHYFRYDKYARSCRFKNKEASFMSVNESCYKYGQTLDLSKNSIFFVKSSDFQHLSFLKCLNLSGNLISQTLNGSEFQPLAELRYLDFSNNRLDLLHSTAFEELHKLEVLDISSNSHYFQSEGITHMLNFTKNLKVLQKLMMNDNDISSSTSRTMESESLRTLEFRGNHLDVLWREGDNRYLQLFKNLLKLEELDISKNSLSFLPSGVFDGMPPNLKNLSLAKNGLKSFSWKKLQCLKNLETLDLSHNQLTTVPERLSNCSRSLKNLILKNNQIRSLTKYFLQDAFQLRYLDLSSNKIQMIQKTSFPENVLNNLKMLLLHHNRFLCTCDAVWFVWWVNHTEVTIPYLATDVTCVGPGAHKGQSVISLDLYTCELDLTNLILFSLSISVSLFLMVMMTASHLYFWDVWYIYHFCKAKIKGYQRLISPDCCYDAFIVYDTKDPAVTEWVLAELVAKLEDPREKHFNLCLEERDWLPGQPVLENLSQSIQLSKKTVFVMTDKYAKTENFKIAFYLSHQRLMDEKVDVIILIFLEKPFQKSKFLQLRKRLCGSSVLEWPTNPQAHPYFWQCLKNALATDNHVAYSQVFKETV

Turning to `CCCCc1nc2c(N)nc3ccccc3c2n1Cc1ccc(CNCCC2CC2)cc1` [Compound No. 63-33, 2-butyl-1-(4-(((2-cyclopropylethyl)amino)methyl)benzyl)-1H-imidazo[4,5-c]quinolin-4-amine], in the assay with CT26 colon carcinoma [1], the “CT26 tumor growth control compared to the vehicle control” value is given as “robust CT26 tumor growth control”. Besides, on TLR7, the “TLR7 (% of Compound No. 63-00 EC50 Value)” value was determined as 290%, the concentration for a half-maximal effect (EC50) is 4 nM and the “fold loss of TLR7 agonist potency compared to Compound No. 63-00 (IMDQ)” value is listed as 4 fold. On TLR8, the “TLR8 (% of Compound No. 63-00 EC50 Value)” value worked out at 41%, it took 75 nM to reach a half-maximal effect (EC50) and the “fold increase of TLR8 agonist potency compared to Compound No. 63-00 (IMDQ)” value (from here on “fold increase … to Compound No. 63-00 (IMDQ)”) worked out at 2.9 fold. In the assay on CT26 colon carcinoma [2], the “tumor growth inhibition in the injected tumor (right flank) compared to the anti-PD-1 treatment alone” value is “greater tumor growth inhibition”; the “tumor growth inhibition in the distal tumor (left flank) compared to the anti-PD-1 treatment alone” value is listed as “trend towards greater tumor growth inhibition”; the “injected tumor growth inhibition, difference from the anti-PD-1 treatment control at day 29” value is reported as “significantly different”.

Regarding `CCCCc1nc2c(N)nc3ccccc3c2n1Cc1ccc(CN)cc1` [Compound No. 63-00, 1-(4-(aminomethyl)benzyl)-2-butyl-1H-imidazo[4,5-c]quinolin-4-amine, reference compound], the “TLR7 (% of Compound No. 63-00 EC50 Value)” value at TLR7 came to 100%. For the same compound, in the assay with CT26 colon carcinoma [2], the “tumor growth inhibition in the injected tumor (right flank) compared to the anti-PD-1 treatment alone” value was “greater tumor growth inhibition”; the “tumor growth inhibition in the distal tumor (left flank) compared to the anti-PD-1 treatment alone” value is “trend towards greater tumor growth inhibition”; the “injected tumor growth inhibition, difference from the anti-PD-1 treatment control at day 29” value is “significantly different”. Moreover, in the assay on serum IL-6 and IL-12p40 (3 hours), the “serum IL-6” value is 772 ± 141 pg/mL and the “serum IL-12p40” value is given as 139,767±31,024 pg/mL. Besides, in the assay on serum IL-6 and IL-12p40 (6 hours), the “serum IL-6” value worked out at 160 ± 19 pg/mL and the “serum IL-12p40” value is recorded as 142,359±22,350 pg/mL. Also, in the assay on serum IL-6 and IL-12p40 (24 hours), the “serum IL-6” value was found to be 32 ± 2 pg/mL and the “serum IL-12p40” value is 7,796±1,545 pg/mL.

As for `CCCCCNCc1ccc(Cn2c(CCCC)nc3c(N)nc4ccccc4c32)cc1` [Compound No. 63-17, 2-butyl-1-(4-((pentylamino)methyl)benzyl)-1H-imidazo[4,5-c]quinolin-4-amine], the values for the EC50 at TLR7 and on TLR8 were 2 nM and 104 nM, respectively. For the same compound, the “fold loss of TLR7 agonist potency compared to Compound No. 63-00 (IMDQ)” value on TLR7 was found to be 2 fold. For the same compound, the “serum IL-6” value is 853 ± 539 pg/mL in the assay on serum IL-6 and IL-12p40 (3 hours); 414 ± 105 pg/mL in the assay with serum IL-6 and IL-12p40 (6 hours); 33 ± 4 pg/mL in the assay on serum IL-6 and IL-12p40 (24 hours). In addition, the “serum IL-12p40” value is given as 84,731±32,530 pg/mL in the assay with serum IL-6 and IL-12p40 (3 hours); 258,645±19,982 pg/mL with serum IL-6 and IL-12p40 (6 hours); 19,546±2,116 pg/mL in the assay with serum IL-6 and IL-12p40 (24 hours).

Turning to `CCCCCCNCc1ccc(Cn2c(CCCC)nc3c(N)nc4ccccc4c32)cc1` [Compound No. 63-18, 2-butyl-1-(4-((hexylamino)methyl)benzyl)-1H-imidazo[4,5-c]quinolin-4-amine], the “CT26 tumor growth control compared to the vehicle control” value with CT26 colon carcinoma [1] is on record as “robust CT26 tumor growth control”. Further, the EC50 was 15 nM at TLR7 and 213 nM on TLR8. In addition, the “fold increase … to Compound No. 63-00 (IMDQ)” value on TLR8 is recorded as “slightly improved”.

Take `CCCCc1nc2c(N)nc3ccccc3c2n1Cc1ccc(CNCC2(C)CCC2)cc1` [Compound No. 63-45, 2-butyl-1-(4-((((1-methylcyclobutyl)methyl)amino)methyl)benzyl)-1H-imidazo[4,5-c]quinoline-4-amine]: at TLR7, the “TLR7 (% of Compound No. 63-00 EC50 Value)” value is reported as 190% and the “fold loss of TLR7 agonist potency compared to Compound No. 63-00 (IMDQ)” value is 1.9 fold. Also, at TLR8, the “TLR8 (% of Compound No. 63-00 EC50 Value)” value is listed as 13% and the “fold increase … to Compound No. 63-00 (IMDQ)” value came to 7.7 fold.

As to `CCCCCCCCCCC(=O)NCc1ccc(Cn2c(CCCC)nc3c(N)nc4ccccc4c32)cc1` [Compound No. 63-07, N-(4-((4-amino-2-butyl-1H-imidazo[4,5-c]quinolin-1-yl)methyl)benzyl)undecanamide], the response at TLR7 was half-maximal at 1 nM (EC50). Moreover, at TLR8, the EC50 turned out to be 2640 nM and the “fold loss of TLR8 agonist potency compared to Compound No. 63-00 (IMDQ)” value is 10-26 fold.

As for `CCCCCCCCCCCCCCCCCCNCc1ccc(Cn2c(CCCC)nc3c(N)nc4ccccc4c32)cc1` [Compound No. 63-29, 2-butyl-1-(4-((octadecylamino)methyl)benzyl)-1H-imidazo[4,5-c]quinolin-4-amine], on TLR7, the EC50 was determined as 19 nM and the “fold loss of TLR7 agonist potency compared to Compound No. 63-00 (IMDQ)” value came out at 19 fold. Besides, at TLR8, a half-maximal response (EC50) required 2770 nM and the “fold loss of TLR8 agonist potency compared to Compound No. 63-00 (IMDQ)” value is reported as “over 12 fold”.
